Several values for one entry are separate records, joined by “and”; a condition that tells them apart may be missing. Equal values may be shown once. Read-outs that look alike come from different tables or passages of the source.
Columns and labels:
Assay type in all cases: physicochemical
[1] = Moisture sorption/desorption by Differential Vapor Sorption (DVS); settings: for R.H. at which substantial desorption (loss of water) starts: DVS scanning mode, 5% ΔR.H. per hour
Experimental: The moisture sorption/desorption behavior was analyzed for different solids using Differential Vapor Sorption (DVS) technique. In FIG. 8 is reported as an example the sorption/desorption isotherms for batch B/6272. […] Though the different batches were not characterized by exactly matching DVS diagrams all reached the about 20% water content after an appropriate time.
This surprising stability to moisture of Form A is also confirmed by DVS experiments. In the scanning mode, water is only lost when about 0% R.H. is reached. Moisture sorption/desorption behavior for the pentahydrate is reported in Example 9 (FIG. 14).
Water vapor sorption/desorption was analyzed using Surface Measurement System Ltd. DVS-1 apparatus. The sample was allowed to equilibrate at 50% R.H. before starting a predefinite humidity program, scanning with 5% ΔR.H. hour^−1 and with several “isohumid” equilibration periods (see FIG. 14 for details). The water content of the sample used for DVS was calculated on the basis of KF analysis, while crystalline form was assessed by FT-Raman spectroscopy. The DVS plots of water content vs. R.H. and R.H. vs. time are reported for Andolast disodium pentahydrate (Form A) in FIG. 14. It can be seen from the DVS plot that substantial desorption starts only at almost 0% RH.

[2] = Solubility of the disodium salt in water; settings: 25° C.
Experimental: N-4-(1H-tetrazol-5-yl)phenyl-4-(1H-tetrazol-5-yl)benzamide is prepared as described in WO 90/09989, Example 13 (herein incorporated by reference). The disodium salt of N-4-(1H-tetrazol-5-yl)phenyl-4-(1H-tetrazol-5-yl)benzamide can be prepared directly as the pentahydrate or precipitated as an undefined mixture of hydrates and then converted into the pentahydrate (Form A), by re-crystallization or by phase equilibration (slurry conversion: slurry in an appropriate solvent mixture). In both cases the disodium salt is obtained by adding to a suspension in water of N-4-(1H-tetrazol-5-yl)phenyl-4-(1H-tetrazol-5-yl)benzamide, an amount of aqueous sodium hydroxide or sodium alkoxide, ranging from 2.0 to 2.2 equivalents, preferably 2.1 equivalents, being sodium methoxide, sodium ethoxide and sodium isopropoxide the preferred alkoxide, at a temperature ranging from +15° to +40° C. […] The resulting mixture is stirred until the solid is completely dissolved, then the pH of the solution is carefully adjusted to 6.5-7.5, by addition of diluted hydrochloric acid, filtered and concentrated under vacuum, at a temperature not exceeding +60° C. […]

[3] = Aerosol performance of dry powder formulation for inhalation by MSLI (Multi Step Liquid Impinger); settings: dose 8 mg
Description: As discussed below Andolast disodium salt as Form A can be formulated according to several pharmaceutical compositions.

[4] = Storage of open samples in humidity controlled chamber (stability to moisture, Example 8); settings: 9 days; for FT-Raman / KF (water content) / XRPD: open sample
Description: The list of improved physical and mechanical characteristics reported below is intended at documenting representative examples of advantages Form A is endowed with over the undefined hydrated forms obtained according to uncontrolled conditions.
samples of Form A were stored, as open samples, in an humidity controlled chamber for 9 days, in Table 5 water content (KF), XRPD and FT-Raman spectra at the end-point of the experiment are reported vs. R.H. […]

[5] = Stability to temperature and mechanical mill (Example 10); settings: open sample 1 day at 50° C., then milled 10 min at 24 s−1 in ball swing mill
Experimental: about 1 g of Andolast disodium salt Form A was stored, as open sample, for 1 day at 50° C. The product was then milled for 10 min. at 24 s−1 in a ball swing mill. A sample was then analyzed by KF and FT-Raman spectroscopy.

[6] = Stability of crystalline form to jet mill micronization (Example 11); settings: MC Jet Mill, nitrogen, 12 bar, about 10 g/30 sec, without cooling
Description: In Example 11 it is reported how Form A can be successfully micronized using conditions identical to the ones used for the micronization of the batch B/7081 (see FIGS. 7a and 7b for XRPD spectra) without altering XRPD and spectroscopic characteristics (Ft-Raman and FT-IR), thus proving Form A stability and crystalline form consistency also after the micronization step affording the suitable drug substance for preparing dry powder and pressurized HFA aerosols formulations for inhalation.
Andolast disodium form A is micronized, without cooling, using an MC Jet Mill apparatus, and nitrogen as carrier gas, at 12 bar and with a feeding rate of about 10 g/30 sec.

[7] = ICH accelerated stability testing
[8] = active ingredient/excipient 1:1, Mean of 6 MSLI runs, listed as Form A obtained at Example 3
[9] = active ingredient/excipient 1:1, capsule inhaler, single MSLI runs 1-6, listed as Form A obtained at Example 3
[10] = active ingredient/excipient 1:1, Mean of 6 MSLI runs
[11] = active ingredient/excipient 1:1, capsule inhaler, single MSLI runs 1-6

In the case of `O=C(Nc1ccc(-c2nn[n-]n2)cc1)c1ccc(-c2nn[n-]n2)cc1.[Na+].[Na+]` [B/6272, reference compound], the “hygroscopic character of the solid” value [1] is reported as “strongly hygroscopic” and the “water content at plateau of moisture sorption” value ([1]; DVS, continuous sorption of moisture) is reported as “about 20%”.
In the case of `O=C(Nc1ccc(-c2nn[n-]n2)cc1)c1ccc(-c2nn[n-]n2)cc1.[Na+].[Na+]` [Andolast disodium salt, N-4-(1H-tetrazol-5-yl)phenyl-4-(1H-tetrazol-5-yl)benzamide disodium salt], the solubility [2] is reported as ~150 mg/mL.
In the case of `O=C(Nc1ccc(-c2nn[n-]n2)cc1)c1ccc(-c2nn[n-]n2)cc1.[Na+].[Na+]` [Example 3], the “DD (Delivered Dose)” value [3, 8] is reported as 7.46 mg, the “FPD (Fine Particle Dose)” value [3, 8] is reported as 2.16 mg and the “FPF (Fine Particle Fraction)” value [3, 8] is reported as 29%. The “MD (Metered Dose)” value [3, 8] was 8.48 mg, the MMAD [3, 8] was 3.8 μm and the “DD (Delivered Dose)” value [3, 9] was 7.25 mg and 7.54 mg and 7.47 mg and 7.33 mg and 7.71 mg and 7.43 mg. The “FPD (Fine Particle Dose)” value [3, 9] was 1.96 mg and 2.07 mg and 2.58 mg and 1.97 mg and 2.18 mg and 2.20 mg, the “FPF (Fine Particle Fraction)” value [3, 9] was 27% and 35% and 28% and 30% and the “MD (Metered Dose)” value [3, 9] was 8.31 mg and 8.67 mg and 8.46 mg and 8.33 mg and 8.49 mg and 8.60 mg. The MMAD [3, 9] was 3.8 μm and 4.0 μm and 3.6 μm and 3.9 μm.
For `O=C(Nc1ccc(-c2nn[n-]n2)cc1)c1ccc(-c2nn[n-]n2)cc1.[Na+].[Na+]` [Form A, N-4-(1H-tetrazol-5-yl)phenyl-4-(1H-tetra-zol-5yl)benzamide disodium salt], the “Stability to moisture (water content and solid form)” value ([4]; R.H. from 12% to 85%, room temperature) was “did not alter the water content of any sample, neither the solid form”, the FT-Raman ([4]; RH 12%) was “Complies with Form A” and the “KF (water content)” value ([4]; RH 12%) was 19.26%. The XRPD ([4]; RH 12%) was “Complies with Form A”, the FT-Raman ([4]; RH 22%) was “Complies with Form A” and the “KF (water content)” value ([4]; RH 22%) was 19.36%. The XRPD ([4]; RH 22%) was “Complies with Form A”, the FT-Raman ([4]; RH 32%) was “Complies with Form A” and the “KF (water content)” value ([4]; RH 32%) was 19.34%. The XRPD ([4]; RH 32%) was “Complies with Form A”, the FT-Raman ([4]; RH 53%) was “Complies with Form A” and the “KF (water content)” value ([4]; RH 53%) was 19.35%. The XRPD ([4]; RH 53%) was “Complies with Form A”, the FT-Raman ([4]; RH 65%) was “Complies with Form A” and the “KF (water content)” value ([4]; RH 65%) was 19.25%. For the same compound, the XRPD ([4]; RH 65%) was “Complies with Form A”, the FT-Raman ([4]; RH 75%) was “Complies with Form A” and the “KF (water content)” value ([4]; RH 75%) was 19.22%. The XRPD ([4]; RH 75%) was “Complies with Form A”, the FT-Raman ([4]; RH 85%) was “Complies with Form A” and the “KF (water content)” value ([4]; RH 85%) was 19.43%. The XRPD ([4]; RH 85%) was “Complies with Form A”, the “R.H. at which substantial desorption (loss of water) starts” value ([1]; disodium salt) was “about 0 % RH” and the “R.H. at which substantial desorption (loss of water) starts” value ([1]; listed as Andolast disodium pentahydrate (Form A), disodium salt) was ~0 % RH. For the same compound, the “hygroscopic character of the solid” value ([1]; listed as Andolast disodium Form A, disodium salt) was “not hygroscopic”, the “KF (water content)” value [5] was 19.53% and the “crystalline change by Raman spectra” value [5] was “no crystalline change occurred”. The “changes in XRPD, FT-IR and FT-Raman versus not-micronized starting material” value [6] was “no changes were observed” and the “stability (physical form and chemical stability)” value [7] was “confirmed its stability”.
In the case of `O=C(Nc1ccc(-c2nn[n-]n2)cc1)c1ccc(-c2nn[n-]n2)cc1.[Na+].[Na+]` [B/7080, reference compound], the “DD (Delivered Dose)” value [3, 10] is reported as 6.63 mg, the “FPD (Fine Particle Dose)” value [3, 10] is reported as 1.12 mg and the “FPF (Fine Particle Fraction)” value [3, 10] is reported as 17%. For the same compound, the “MD (Metered Dose)” value [3, 10] was 7.55 mg, the MMAD [3, 10] was 5.2 μm and the “DD (Delivered Dose)” value [3, 11] was 6.66 mg and 5.96 mg and 6.77 mg and 7.01 mg and 6.57 mg and 6.81 mg. For the same compound, the “FPD (Fine Particle Dose)” value [3, 11] was 0.96 mg and 0.99 mg and 1.21 mg and 1.01 mg and 1.23 mg and 1.30 mg, the “MD (Metered Dose)” value [3, 11] was 7.60 mg and 7.29 mg and 7.61 mg and 7.85 mg and 7.65 mg and the MMAD [3, 11] was 5.3 μm and 5.2 μm and 5.1 μm and 5.4 μm.

— patent US7824710B2, “Crystalline and stable form of andolast” (Rottapharm S.p.A., priority 2006, dated 2010)
